# Measurements published in patent US11459313B2, “Aziridinyl and amino dimeric naphthoquinone compounds and use for acute myeloid leukemia” (University of Maryland, Baltimore, priority 2016, dated 2022).
# Columns and labels:
# MOLM-14 cells [1] = assay: Cell survival assay (trypan blue exclusion), MOLM-14; type: cell-based, human; settings: 72 hours; at 0.1, 1, 10 and 100 μM
# Method: MOLM-.14 and THP-1 cells were seeded in 96-well plates and treated with DMSO, mono- and bis-aziridinyl dimeric naphthoquinone compounds, or dimethylamine dimeric naphthoquinone Compound 114 as previously described. Cells were incubated for 72 hours, and then counted using trypan blue exclusion on the Countess® automated cell counter (Life Technologies®). Cell counts were performed in duplicates, and the averages were graphed using GraphPad Prism® software (GraphPad®).
# Cell survival was determined using trypan blue exclusion, in which cells are plated and the following day treated similarly to the proliferation assay. The bis-aziridinyl dimeric naphthoquinone Compound 101 was effective in decreasing cell number at increasing concentrations of compound in MOLM-14 and THP1 cells.
# MOLM-14 cells [2] = assay: Cellular reactive oxygen species (H2DCFA), MOLM-14; type: cell-based, human
# Method: (§1) MOLM-14 and THP-1 cells in logarithmic growth phase were centrifuged and resuspended in PBS at one million cells per milliliter (mL) of medium. Cells were preloaded with 2′,7′-dichlorodihydrofluorescein diacetate (H2DCFA, Life Technologies®) at a final concentration of 2 μM and incubated at 37° C. in the dark for 25 minutes. Cells were centrifuged and resuspended at one million per mL in phenol red-free RPMI plus 10% FBS and incubated at 37° C. in the dark for 25 minutes. Treatments were prepared at 2× concentrations of […] in complete phenol red-free RPMI and added to each well to yield 1× concentrations of 20, 10, 2, or 0.5 μM. Cells were incubated in the dark at 37° C. and measurement of ROS was performed with a Bio-tek® Synergy HT plate reader at various time points post treatment.
# (§2) In order to elucidate the mechanisms by which the bis-aziridinyl naphthoquinone exerts anti-leukemic activity, the amount of reactive oxygen species (ROS) that cells produced upon treatment with Compound 101 was examined. MOLM-14 and THP-1 cells were loaded with the ROS dye H2DCFA and subsequently plated into 96-well plates. Cells were treated with vehicle (negative control), Compound 101 in varying concentrations, or hydrogen peroxide (positive control), and observed over a period of 2-6 hours. The relative fluorescence units (RFU) were read at various time points. […]
# THP-1 cells = assay: Cellular reactive oxygen species (H2DCFA), THP-1; type: cell-based, human
# Method: as §1, §2
# MOLM-14 cells [3] = assay: Gamma-H2Ax immunofluorescence assay, MOLM-14; type: cell-based, human; settings: 24 hours; 200 nM, 1.0 and 2.0 μM
# Method: MOLM-14 cells were seeded in the afternoon and the following morning treated with DMSO, or aziridinyl-dimeric naphthoquinone Compound 101 at 1×, 5×; or 10× IC50 concentrations. Cells were harvested at 24 and 48 hours. Briefly, cells were washed twice with PBS, counted, and resuspended into PBS/2% FBS. Approximately 150,000 cells were pelleted on Superfrost® microslides (Thermo Fisher Scientific®) using a cytospin machine (Thermo Fisher Scientific®) for 10 minutes at 800 RPM. Slides were air-dried for 5 minutes, then fixed in 4% paraformaldehyde for 15 minutes, washed with PBS 3 times, each time for 5 minutes and permeabilized with permeabilization buffer (50 mM NaCl, 3 mM MgCl2, 10 mM HEPES, 200 mM sucrose, and 0.5% Triton-X-100) for 10 minutes. After overnight blocking in PBS/10% FBS, slides were washed 3 times, each time for 5 minutes with wash buffer (PBS, 1% BSA, and 0.1% Triton-X-100), stained with 1:100 anti-phosphohistone H2Ax antibody (Millipore®), washed with wash buffer again 3 times, each time for 5 minutes, and stained with 1:200 goat anti-mouse IgG, Dylight 594® (Thermo Scientific®), washed 3 times, each time for 5 minutes with wash buffer, and mounted with Vectashield® mounting medium with 4′,6-diamidino-2-phenylindole (DAPI, Vector Labs®). Slides sat overnight and were sealed the following day with clear nail polish. […]
# [4] = Safety and tolerability in NSG mice; type: in vivo; settings: female NSG mice; 5, 10 or 15 mg/kg intraperitoneal daily for 5 days, one week observation
# Method: Considering the significant antineoplastic, activity of Compound 101, the safety and tolerability of this agent was tested in vivo on female NSG nice. Groups of three female NOD.Cg-Prkdc^scid Il2rg^tm1Wjl/SzJ (NSG) mice were tested with 5, 10 or 15 mg/kg of Compound 101 delivered by intraperitoneal injection daily for 5 consecutive days, and the mice monitored for one additional week. […] An asterisk (*) denotes days of dosing.
compound,measurement,setting,value
"O=C1C(C2=C(N3CC3)C(=O)c3ccccc3C2=O)=C(N2CC2)C(=O)c2ccccc21 [Compound 101, 3,3′-di(aziridin-1-yl)-[2,2′-binaphthalene]-1,1 4,4′-tetrone]","viable cells, MOLM-14",MOLM-14 cells [1],statistically significant (p<0.05) reduction in viable cells
same,"time to production of ROS, MOLM-14",MOLM-14 cells [2],≤ 2 h
same,"ROS production, MOLM-14","MOLM-14 cells [2]; 0.5-20 μM, 2-6 hours",dose-dependent increase in ROS production
same,"time to production of ROS, THP-1",THP-1 cells,≤ 2 h
same,"ROS production, THP-1","THP-1 cells; 0.5-20 μM, 2-6 hours",dose-dependent increase in ROS production
same,"γ-H2Ax phosphorylation (double-stranded DNA breaks), MOLM-14",MOLM-14 cells [3],substantial γ-H2Ax phosphorylation
same,mean body weight loss,[4],≤ 10%
same,tolerability,[4],tolerated the compound well with no weight loss observed
